These results are taken from ChEMBL document CHEMBL1145750, “Synthesis and biological evaluation of 2'-methyl taxoids derived from baccatin III and 14beta-OH-baccatin III 1,14-carbonate” (J Med Chem, 2003).

Test [1] deals with A2780. In words: In vitro cytotoxicity against A2780ADR cell line. To be noted: Homo sapiens.
Test [2] relates to A2780. In words: In vitro cytotoxicity against A2780CIS cell line. The following applies: Homo sapiens.
Test [3] concerns A2780. In words: In vitro cytotoxicity against A2780TAX cell line. The following applies: Homo sapiens.
Test [4] has as its system A2780. Nature of the test: In vitro cytotoxicity against A2780 cell line. To be noted: Homo sapiens.
Test [5] in a line: Potency differential in resistant to that of sensitive A2780ADR cell line. Type of test: functional, A2780 ADR.
Test [6] in a line: Potency differential in resistant to that of sensitive A2780CIS cell line. It counts as functional.
The nature of test [7]: Potency differential in resistant to that of sensitive A2780TAX cell line. It counts as functional.
Test [8] has as its system MCF7R. In words: In vitro cytotoxicity against MCF7-R cell line. Type of test: functional, cell-based. To be noted: Homo sapiens.
The test system of the next test is MCF7. Nature of the test: In vitro cytotoxicity against MCF-7 cell line. It counts as functional, cell-based. To be noted: Homo sapiens.
A short description of test [9]: (§1) Potency differential in resistant to that of sensitive MCF7-R cell line. It counts as functional.
For test [10], the system named is MCF7R. Described as §1. It counts as functional, cell-based. To be noted: Homo sapiens.

With `CC(=O)O[C@H]1C(=O)[C@@]2(C)[C@H]([C@H](OC(=O)c3ccccc3)[C@]3(O)C[C@H](OC(=O)[C@](C)(O)[C@@H](NC(=O)c4ccccc4)c4ccco4)C(C)=C1C3(C)C)[C@]1(OC(C)=O)CO[C@@H]1C[C@@H]2O`, the IC50 came to 61.4 nM in the test with A2780 [1], 2.9 nM in the test with A2780 [2], 420 nM in the test on A2780 [3] and 3.1 nM in the test with A2780 [4]. Further, the Ratio in test [5] was found to be 20; in [6] it was 0.9; in test [7], 135.

With `CC(=O)O[C@H]1C(=O)[C@@]2(C)[C@H]([C@H](OC(=O)c3ccccc3)[C@]34OC(=O)O[C@H]3[C@H](OC(=O)[C@](C)(O)[C@@H](NC(=O)OC(C)(C)C)c3ccccc3)C(C)=C1C4(C)C)[C@]1(OC(C)=O)CO[C@@H]1C[C@@H]2O`, the IC50 in the test on A2780 [1] stood at 52.9 nM; in the test on A2780 [2] it was 1.7 nM; in the test with A2780 [3], 299 nM; in the test with A2780 [4], 2.5 nM. Moreover, the Ratio is on record as 21 in [5], 0.7 in [6] and 118 in test [7].

For the compound `CC(=O)O[C@H]1C(=O)[C@@]2(C)[C@H]([C@H](OC(=O)c3ccccc3)[C@]3(O)C[C@H](OC(=O)[C@](C)(O)[C@@H](NC(=O)OC(C)(C)C)c4ccco4)C(C)=C1C3(C)C)[C@]1(OC(C)=O)CO[C@@H]1C[C@@H]2O`, the IC50 worked out at 41.3 nM in the test on A2780 [1], 3.3 nM with A2780 [2], 312 nM in the test on A2780 [3] and 2.9 nM in the test with A2780 [4]. The Ratio in [5] is 14; in [6], 1.1; in [7], 107.

As for `CC(=O)O[C@H]1C(=O)[C@@]2(C)[C@H]([C@H](OC(=O)c3ccccc3)[C@]34OC(=O)O[C@H]3[C@H](OC(=O)[C@](C)(O)[C@@H](NC(=O)OC(C)(C)C)c3ccco3)C(C)=C1C4(C)C)[C@]1(OC(C)=O)CO[C@@H]1C[C@@H]2O`, the IC50 was 27.1 nM in the test on A2780 [1]; 2.5 nM with A2780 [2]; 30.9 nM in the test on A2780 [3]; 5.9 nM with A2780 [4]; 16 nM in the test with MCF7R [8]; 1.7 nM in the test on MCF7. Also, the Ratio was found to be 4 in test [5], 0.4 in test [6], 5 in [7] and 9.4 in [9].

Take `CC(=O)O[C@H]1C(=O)[C@@]2(C)[C@H]([C@H](OC(=O)c3ccccc3)[C@]34OC(=O)O[C@H]3[C@H](OC(=O)[C@](C)(O)[C@@H](NC(=O)OC(C)(C)C)C(F)(F)F)C(C)=C1C4(C)C)[C@]1(OC(C)=O)CO[C@@H]1C[C@@H]2O`: the IC50 in the test on A2780 [1] is 79.3 nM; with A2780 [2], 2.8 nM; in the test with A2780 [3], 285 nM; in the test with A2780 [4], 4.6 nM. The Ratio in test [5] worked out at 17; in test [6], 0.6; in test [7] it was 61.

Take `CC(=O)O[C@H]1C(=O)[C@@]2(C)[C@H]([C@H](OC(=O)c3ccccc3)[C@]34OC(=O)O[C@H]3[C@H](OC(=O)[C@H](O)[C@H](CC(C)C)NC(=O)OC(C)(C)C)C(C)=C1C4(C)C)[C@]1(OC(C)=O)CO[C@@H]1C[C@@H]2O` [ORTATAXEL]: the IC50 was 63 nM with A2780 [1]; 3.6 nM in the test with A2780 [2]; 56 nM with A2780 [3]; 4.8 nM in the test on A2780 [4]; 36 nM with MCF7R [8]; 1.1 nM in the test on MCF7. The Ratio in the test with MCF7R [10] came out at 33; in test [5], 13; in test [6] it was 0.7; in [7] it was 12.
